These results are taken from ChEMBL document CHEMBL1629615, “Intrapulmonary pharmacokinetics and pharmacodynamics of posaconazole at steady state in healthy subjects” (Antimicrob Agents Chemother, 2009).

Data set [1] can be described thus: AUC (0 to 24 hrs) in healthy human lung epithelial lining fluid at 200 mg, po every 12 hrs for 5 days. Format: ADME, organism-based. Further details: time < 24 hr, dose 200 mg, route oral.
A short description of data set [2]: Cmax in healthy human plasma at 200 mg, po every 12 hrs for 5 days. Format: ADME, organism-based. More on the design: dose 200 mg, route oral.
Data set [3] in a line: AUC (0 to 24 hrs) in healthy human alveolar cell at 200 mg, po every 12 hrs for 5 days. Further details: time < 24 hr, dose 200 mg, route oral. As to conditions: alveolar cells. Format: ADME, organism-based, Pneumocyte.
Data set [4] in a line: Cmax in healthy human lung epithelial lining fluid assessed as hydroxyitraconazole at 200 mg, po every 12 hrs for 5 days. Format: ADME, organism-based. More on the design: dose 200 mg, route oral. As to conditions: in vivo.
Data set [5] in a line: AUC (0 to 24 hrs) in healthy human plasma at 200 mg, po every 12 hrs for 5 days. More on the design: dose 200 mg, time < 24 hr, route oral. Format: ADME, organism-based.
Data set [6] is described as follows: Cmax in healthy human alveolar cell at 200 mg, po every 12 hrs for 5 days. Further details: dose 200 mg, route oral. Format: ADME, organism-based, Lung, Pneumocyte. As to conditions: alveolar cells.

One may read the AUC as concentration integrated over time. A higher AUC goes with more exposure. By Cmax is commonly meant the highest concentration seen after dosing. In the case of `CCC(C)n1ncn(-c2ccc(N3CCN(c4ccc(OCC5COC(Cn6cncn6)(c6ccc(Cl)cc6Cl)O5)cc4)CC3)cc2)c1=O` (stereo unspecified) [ITRACONAZOLE], the AUC at 24 h in data set [1] was found to be 7400 ng·h/mL; in data set [3] it was 101000 ng·h/mL; in data set [5] it was 34400 ng·h/mL. Moreover, the figures for the Cmax in data set [2], in data set [4] and in data set [6] were 2100 ng/mL, 5500 ng/mL and 500 ng/mL, respectively.
